We go through 60 compounds from ChEMBL document CHEMBL1157539, “Thousands of chemical starting points for antimalarial lead identification” (Nature, 2010).

This assay deals with Plasmodium falciparum. The experiment in a line: GSK_TCMDC: Inhibition of Plasmodium falciparum 3D7 in whole erythrocytes, using parasite LDH activity as an index of growth. Type of assay: functional, organism-based.

Where “and” joins values, the source holds several entries; their conditions need not be identical. Equal entries are not always repeated.

In turn, `S=C(NCCCCCN1CCC(c2c[nH]c3ccccc23)CC1)Nc1cccc(I)c1` came in with an XC50 (Plasmodium falciparum, 3D7) of 845 nM. `Cc1cccc2nc(-c3cccc(-c4cccc(CN5CCC(CO)CC5)c4)c3)[nH]c12` displayed an XC50 (Plasmodium falciparum, 3D7) of 724 nM. Same read-out and setting: under `O=C(/C=C/c1ccc(Cl)c(Cl)c1)NCCCCCCN1CCN(C(=O)Nc2ccc(Cl)c(C(F)(F)F)c2)CC1` stands 526 nM.

In the case of `CN(CC1CCC(NC(=O)/C=C/c2ccc(Cl)c(Cl)c2)CC1)C1CCC(c2c[nH]c3ccccc23)CC1` (stereo not given), the XC50 (Plasmodium falciparum, 3D7) is 837 nM.

For the compound `CC(O)c1cccc(-c2ccc(Nc3ccnc4cc(-c5nccs5)ccc34)cc2)c1` (stereo not given), the XC50 (Plasmodium falciparum, 3D7) amounted to 1010 nM.

Turning to `COc1cccc(CN2CCN(C(c3ccccc3)c3ccccc3)CC2)c1O`, for the setting “Plasmodium falciparum, 3D7”, the XC50 was 781 nM.

Under “Plasmodium falciparum, 3D7”, `O=C(c1ccc(Cl)cc1Cl)N1CCCC(C(F)(F)F)C1` (stereo not given) showed an XC50 of 952 nM. On the same count and under the same terms, under `CCC(Cc1cnc2nc(N)nc(N)c2n1)c1ccc(C(=O)O)cc1` (stereo not given) stands 250 nM; under `C[C@H](Cc1ccc(OCCCCCCCOc2ccc(C[C@@H](C)NC[C@H](O)c3cccc(Cl)c3)cc2)cc1)NC[C@H](O)c1cccc(Cl)c1`, 189 nM. Still for that read-out and setting: under `O=C(NC1CCN(Cc2ccccc2)CC1)c1ccc(-c2nc3cc4ccccc4cc3[nH]2)s1` stands 601 nM; under `O=C1C2C(c3ccc(Cl)c(Cl)c3)N3CC(OCc4ccccc4)CC3(C(=O)O)C2C(=O)N1c1ccc(Br)cc1` (stereo not given), 336 nM. On the same count and under the same terms, under `CCNc1cc(C(=O)N[C@@H](Cc2ccccc2)[C@H](O)CNC2(Cc3cccc(Cl)c3)CCC2)cc(N2CCCCS2(=O)=O)c1` stands 1180 nM; under `CCN(CCNS(C)(=O)=O)c1ccc(N)c(C)c1`, 875 nM. Consider `O=C(/C=C/c1c(Cl)cccc1Cl)NC1CCC(CN2C3CCC2CC(c2c[nH]c4ccccc24)C3)CC1` (stereo not given), for which the XC50 (Plasmodium falciparum, 3D7) is 844 nM. Turning to `CC(=O)Nc1ccc(C(=O)Nc2cccc(-c3cccc(-c4nc5cccc(C)c5[nH]4)c3)c2)cn1`, the XC50 (Plasmodium falciparum, 3D7) is 64.7 nM.

Compound `O=C(Nc1ccc(-c2oc(C(=O)NCCc3cccc(Cl)c3)cc2-c2ccncc2)cc1)Nc1cccc(Cl)c1` gave an XC50 (Plasmodium falciparum, 3D7) of 722 nM. Compound `COC(=O)Nc1cc(C(F)(F)F)ccc1N1CCCC(NS(=O)(=O)c2ccc(C(C)(C)C)cc2)C1` (stereo not given) showed an XC50 (Plasmodium falciparum, 3D7) of 380 nM.

Regarding `COc1ccc(-c2ccc(NC(=O)c3ccc(F)cc3)cc2)cc1CN1CCCN(C)CC1`, the XC50 (Plasmodium falciparum, 3D7) worked out at 663 nM. For the setting “Plasmodium falciparum, 3D7”, `CCNc1cc(C(=O)N[C@@H](Cc2cccc(Cl)c2)[C@H](O)CNC(C)CCCC(C)C)cc(N2CCCCS2(=O)=O)c1` (stereo not given in full) displayed an XC50 of 285 nM. Regarding `COc1cc(Nc2ncc3c(C)nc(-c4cc5ccccc5[nH]4)n3n2)cc(OC)c1OC`, the XC50 (Plasmodium falciparum, 3D7) turned out to be 1020 nM. Same read-out and setting: for `Cc1noc(C)c1-c1cccc(CNCc2ccc(-c3cccc(-c4nc5cc(C(F)(F)F)ccc5[nH]4)c3)cc2)c1` the value was 556 nM; for `Cc1nc(-c2nc(NCCc3c(C)noc3C)ncc2-c2ccsc2)sc1C`, 256 nM; for `O=C1C(=Cc2c(O)ccc3ccccc23)SC(=NCc2ccccc2)N1Cc1ccccc1`, 155 nM.

Compound `O=C(Nc1cccc(-c2ccc(CN3CCCC3)cc2)c1)c1cccc(F)c1` had an XC50 (Plasmodium falciparum, 3D7) of 783 nM. Still for that read-out and setting: under `COc1cc(CCCON2C(=N)N=C(N)NC2(C)C)cc(OC)c1OC` stands 39.1 nM; under `O=C(Cc1ccccc1)NC1(c2ccccc2)CCN(CCc2c[nH]c3ccc(F)cc23)CC1`, 878 nM; under `Cc1cccc(OC2CCN(c3ncc(C(=O)NCCCN4CCCC4=O)cc3Cl)CC2)c1`, 183 nM. On the same count and under the same terms, for `Cc1[nH]c2c(C)cccc2c1C1CCN(CCC2CCN(C(=O)/C=C/c3ccc(Cl)c(Cl)c3)CC2)CC1` the value was 636 nM; for `CN1CCC(N(C)C(=O)C=Cc2cn(-c3ccccc3)nc2-c2cc3ccccc3o2)CC1`, 1340 nM; for `N#Cc1ccc(CN2CCC(NC(=O)c3ccc(-c4nnc(-c5cccc6ccccc56)o4)cc3)CC2)cc1`, 684 nM. Same read-out and setting: under `O=C1CCCN1CCCNCc1ccc(-c2cccc(-c3nc4cc(F)ccc4[nH]3)c2)cc1` stands 659 nM.

On to `O=S(=O)(NCCN1CCCC1)c1ccc(-c2cccc(CNCCc3cccs3)c2)s1`, for which, for the setting “Plasmodium falciparum, 3D7”, the XC50 is 705 nM. Still for that read-out and setting: under `CN(C)c1ccc(-c2csc(C(=O)NC3CCCCN(CCC(C)(C)C)C3)c2)cc1` (stereo not given) stands 1050 nM; under `Oc1ccc(CCNc2nc(NCCCOc3ccccc3-c3ccc(C(F)(F)F)cc3)nc(N3CCNCC3)n2)cc1`, 891 nM; under `CCOC(=O)CNC(=O)N(CCN(Cc1ccccc1)C(=O)NCC(=O)OCC)Cc1ccccc1`, 769 nM. Consider `N=C(N)NN=Cc1c2ccccc2c(Cl)c2cc(Cl)ccc12`, for which the XC50 (Plasmodium falciparum, 3D7) was found to be 791 nM. For the compound `Cc1noc(-c2ccccc2)c1NC(=O)NC1CCN(CCCCCNC(=O)/C=C/c2ccc(Cl)c(Cl)c2)CC1`, the XC50 (Plasmodium falciparum, 3D7) was found to be 985 nM.

`CC(=O)Nc1ccc2[nH]cc(C3CCN(CC4CCC(NC(=O)/C=C/c5ccc(Cl)c(Cl)c5)CC4)CC3)c2n1` (stereo not given): the XC50 (Plasmodium falciparum, 3D7) amounted to 263 nM.

On to `CCN(CC)CCN(Cc1ccc(-c2ccc(C(F)(F)F)cc2)cc1)C(=O)CN1C(CCc2cccc(F)c2F)=NS(=O)(=O)c2ccccc21`, for which, where the note is “Plasmodium falciparum, 3D7”, the XC50 amounted to 237 nM. Still for that read-out and setting: under `COc1ccc(CN2CCC(CNCCc3ccccc3Oc3ccccc3)CC2)cc1` stands 1100 nM. Same read-out and setting: for `CN(C)Cc1ccc2cc(NC(=O)c3ccc(-c4ccc(Cl)cc4)cc3)ccc2c1` the value was 1340 nM. The same measure, in the same setting: under `COc1ccc(C2CC(=O)C3=C(C2)NC(C)=C(C(=O)OC(C)C)C3c2ccc(O)cc2)cc1OC` (stereo not given) stands 278 nM.

Compound `O=C(CN1CCN(C(=O)c2ccco2)CC1)Nc1ccccc1Br` gave an XC50 (Plasmodium falciparum, 3D7) of 558 nM. Same read-out and setting: under `CN(C)CCCOc1cc(NC(=O)Nc2ccc(-c3ccncc3)c3ccccc23)ccc1I` stands 699 nM; under `CS(=O)(=O)CCNCc1nc(-c2ccc3c(Nc4ccc(Cl)cc4F)ccnc3c2)cs1`, 1080 nM; under `N=C(N)NCCN(Cc1ccccc1)c1ccccc1`, 345 nM. The same measure, in the same setting: under `CC(Cc1ccc(Cl)cc1)Nc1nc(NC2CCCC2)nc(N2CCC(C#N)(c3ccccc3)CC2)n1` (stereo not given) stands 715 nM. Consider `COC(=O)c1ccc(CC(C)NCC(O)c2cccc(C(F)(F)F)c2)cc1` (stereo not given), for which the XC50 stood at 765 nM. The compound `Cc1cc(NS(=O)(=O)c2cccc(C(C)N3CCC(N4CCCC4)CC3)c2)ccc1C(C)C` (stereo not given) had an XC50 (Plasmodium falciparum, 3D7) of 824 nM. Same read-out and setting: under `N=C(N)NN=CC(=O)Nc1ccc(Cl)cc1` stands 814 nM; under `N#CC(c1ccc(Cl)cc1)c1ccc2c(C(F)(F)F)cc(C(F)(F)F)nc2n1` (stereo not given), 1010 nM.

The compound `COc1ccc2nccc(NC(=O)N3CCC(NCc4cc5c(F)ccc(F)c5[nH]4)CC3)c2n1` registered an XC50 (Plasmodium falciparum, 3D7) of 221 nM. Still for that read-out and setting: for `COc1cc(NC(=O)c2sc(-c3ccc(Cl)cc3)cc2NC(=O)c2ccncc2)ccc1OCCN1CCCC1` the value was 31.5 nM; for `C=CCOC1OC(COC(c2ccccc2)(c2ccccc2)c2ccccc2)C(OC(C)=O)C(OC(C)=O)C1NC(C)=O` (stereo not given), 657 nM.

`O=C(Nc1ccccc1)c1ccc(-c2cc3ccncc3cc2OC2CCNCC2)s1` came in with an XC50 (Plasmodium falciparum, 3D7) of 654 nM. On the same count and under the same terms, under `O=[N+]([O-])c1cccc(-n2nc(NCc3ccc(Cl)cc3)nc2-c2ccc(F)c(C(F)(F)F)c2)c1` stands 243 nM; under `O=C(C=Cc1ccc(F)c(Br)c1)N1CCC(CN2CCC(c3c[nH]c4ccccc34)CC2)CC1`, 745 nM; under `O=C(Nc1nc2cc(S(=O)(=O)NCc3ccc(Cl)c(Cl)c3)ccc2n1CCCn1ccnc1)c1ccc(Cl)cc1`, 727 nM.

Regarding `N#CC(c1cccc(Cl)c1)c1ccc2c(C(F)(F)F)cc(C(F)(F)F)nc2n1` (stereo not given), the XC50 (Plasmodium falciparum, 3D7) was 727 nM.

`O=C(CCc1ccc(Cl)cc1Cl)NC1CCC(CN2CCC(c3c[nH]c4ccccc34)CC2)CC1` (stereo not given): the XC50 is 216 nM and 903 nM.
